# Measurements taken from publication PMC5365662, “A Short Double-Stapled Peptide Inhibits Respiratory Syncytial Virus Entry and Spreading” (Antimicrobial Agents and Chemotherapy, 2017).
# Bridge positions count the residues as written; N and C are the ends. Square brackets hold non-standard residues; d marks the D form. Peptide text beside a SMILES is read from it. R5 = C=CCCC[C@@](C)(N)C(=O)O; S5 = C=CCCC[C@](C)(N)C(=O)O
# Experiments:
# [1] = Proteolytic stability assay, chymotrypsin; assay type: in vitro ADME; settings: chymotrypsin (isolated protease); 10 μl peptide 0.29 mM in 990 μl 100 mM Tris-HCl pH 8.0, 10 mM CaCl2; 10 μl chymotrypsin 50 μg/ml; 25°C; LC-MS of intact peptide, exponential decay fit; 3 experiments
# Experimental: This is an important parameter to assess for the development of peptide therapeutics. Peptides 4bb, 4ca, and 4a, and the unstapled analog peptide 4, as well as both SAH-RSVFBD isomers, were treated with chymotrypsin or trypsin, and the samples were analyzed by LC/MS to quantify the reaction products over time. […] In comparison, both SAH-RSVFBD isomers were more susceptible to proteolytic degradation, with half-lives of approximately 7 h and 5 min against chymotrypsin and trypsin, respectively.
# In vitro proteolytic degradation was measured via LC-MS using an Agilent Infinity 1280 UHPLC system coupled to an Agilent quadrupole time of flight (QTOF) 6530 instrument with an Agilent Jet Stream electrospray ionization (AJS ESI) source (all from Agilent Technologies, Waldbronn, Germany). Five microliters of digested sample was injected onto a C18 column (Zorbax Eclipse Plus RRHD, 1.8 μm, 2.1 by 100 mm; Agilent Technologies, Waldbronn, Germany) equilibrated with solvent A (5% acetonitrile, 0.2% formic acid) and eluted with a flow rate of 0.4 ml/min over a 5 to 95% gradient of solvent B (95% acetonitrile, 0.2% formic acid) in 5 min, followed by 1.5 min at 95% and 0.5 min posttime. The AJS ESI source was operated with a capillary voltage of 4,000 V and a nozzle voltage of 600 V with a drying gas temperature of 325°C and flow rate of 10 liters/min, nebulizing gas pressure of 20 lb/in^2, and a sheath gas temperature of 300°C and flow rate of 11 liters/min. Mass spectra were acquired in the positive-ion mode from 100 to 3,200 m/z at a rate of 1 scan per second in extended dynamic range (2 GHz) mode. The fragmentor, skimmer, and octopole RF voltages were set to 200, 60, and 750 V, respectively. Data were acquired and analyzed with the Agilent MassHunter Workstation (version B.05).
# Peptide digestion was performed as follows: 10 μl of peptide at 0.29 mM in 50:50 acetonitrile-water was dissolved in 990 μl 100 mM Tris-HCl (pH 8.0) with 10 mM CaCl2. Following measurement of the undigested (t0) sample, 10 μl of chymotrypsin at 50 μg/ml in 100 mM Tris-HCl (pH 8.0) with 10 mM CaCl2 was added, and the sample was vortexed and placed immediately in the autosampler, set to 25°C. The level of intact peptide was quantified by serial injection over time. Integration of the intact peptide compound chromatogram was performed using the Agilent Molecular Feature Extraction (MFE) algorithm. The value of the fit at t = 0 min was used to calculate the percentage of the intact peptide at each point as follows: Percent intact (t) = [Vol (t)/Volt0] × 100, where Vol is the total volume calculated using Find Compounds by Molecular Feature and Volt0 is the value of the fit at time t = 0. A plot of the intact peptide MFE peak area over time gave an exponential decay curve, from which the half-life was determined using MatLab […].
# rHRSV-Luc = assay: RSV infection of mice, intranasal treatment, in vivo luminescence; settings: BALB/c, n = 4
# Experimental: In order to track the infection, we used the recombinant virus rHRSV-Luc, which was previously shown to allow in vivo imaging studies of RSV replication and spreading and constitutes a powerful and convenient tool for the evaluation of drug efficiency against RSV in the mouse model ([24]). […] Mice were anesthetized at day 3 p.i. and observed alive using the IVIS imaging system 5 min after i.n. injection of D-luciferin. […] At day 3 p.i., a second dose of the peptide was administered to the mice, and the bioluminescence was measured at day 5 p.i. […]
# Female BALB/c mice were purchased from the Centre d'Elevage R. Janvier (Le Genest Saint-Isle, France) and were used at 8 weeks of age. […] Luminescence measurement was then performed at day 5 p.i.
# Mice were anesthetized, and luminescence was measured 5 min following i.n. injection of 50 μl of PBS containing 0.75 mg kg^−1 of body weight D-luciferin (Sigma). Photon emission of mock-infected and rHRSV-Luc-infected mice was measured using the IVIS 200 imaging system (Xenogen Corp.). […] Digital false-color photon emission images of mice were generated, and photons were counted within a constant region of interest corresponding to the surface of the chest encompassing the whole-airway area. Photon emission was measured as radiance in photons per second per square centimeter per steradian (p s^−1 cm^−2 sr^−1).
compound,measurement,setting,value
"CC[C@H](C)[C@@H]1NC(=O)[C@H](Cc2ccccc2)NC(=O)[C@@](C)(NC(=O)[C@H](CC(C)C)NC(=O)[C@H](CO)NC(=O)[C@]2(C)CCCC=CCCC[C@@](C)(NC(=O)[C@H](CCC(=O)O)NC(C)=O)C(=O)N[C@@H]([C@@H](C)CC)C(=O)N[C@@H](CC(N)=O)C(=O)N2)CCCC=CCCC[C@@](C)(C(=O)N[C@@H](CO)C(=O)N[C@@H](CC(=O)O)C(=O)N[C@@H](CCC(=O)O)C(=O)N[C@@H](CC(C)C)C(=O)N[C@@H](CC(C)C)C(=O)N[C@@H](Cc2c[nH]cn2)C(=O)N[C@@H](CC(N)=O)C(=O)N[C@H](C(N)=O)C(C)C)NC(=O)[C@H](CCCNC(=N)N)NC1=O [Peptide 4ca] (Ac-E[R5]IN[S5]SL[S5]FIR[S5]SDELLHNV-NH2; staple 2-5, 8-12)",half-life at 2.9 µM,[1],180 h
same,decrease of viral infection versus untreated mice (bioluminescence),"rHRSV-Luc; i.n. 50 μl at 50 μM in PBS at day 0 (10 min before rHRSV-Luc 5 × 10^4 PFU) and day 3, day 5 p.i.",3 fold
same,bioluminescence in snout and lungs versus control mice,"rHRSV-Luc; i.n. 50 μl at 50 μM in PBS, rHRSV-Luc 5 × 10^4 PFU, day 3 p.i.",clearly reduced
